Assay results published in article PMC10284601, “Evolution of an extreme hemoglobin phenotype contributed to the sub-Arctic specialization of extinct Steller’s sea cows” (eLife, 2023).

What was measured:
Assay in all cases: shift of O2 affinity (P50), thin-film O2 equilibrium curves
Settings in all cases: allosteric effector of O2 binding; 0.5 mM DPG (twofold molar excess over tetramer) vs stripped Hb; no Cl-; 0.1 M HEPES, pH 7.2, 37 °C
dugong Hb (HbA; α2β/δ2) = molecular target: T1, dugong Hb (HbA; α2β/δ2) (Dugong dugon, UniProt A0A481WQB0)
T1 construct: gene HBB; recombinant tetramer, E. coli JM109 (DE3) with co-expressed methionine aminopeptidase, codon-optimised, ion exchange purified; with Hemoglobin subunit alpha

[1] = molecular target: T2, Steller's sea cow Hb (H. gigas HbA; α2β/δ2) (Hydrodamalis gigas, UniProt A0A481WR13)
T2 construct: gene HBB; recombinant tetramer, E. coli JM109 (DE3) with co-expressed methionine aminopeptidase, codon-optimised, ion exchange purified; natural β/δ82Asn; with Hemoglobin subunit alpha

[2] = molecular target: T3, Steller's sea cow Hb (H. gigas HbA; α2β/δ2) (Hydrodamalis gigas, UniProt A0A481WR13, N83K)
T3 construct: gene HBB; recombinant tetramer, E. coli JM109 (DE3) with co-expressed methionine aminopeptidase, codon-optimised, ion exchange purified; natural β/δ82Asn; with Hemoglobin subunit alpha
T3 sequence (A0A481WNT7 entry or part of it, stated change not applied): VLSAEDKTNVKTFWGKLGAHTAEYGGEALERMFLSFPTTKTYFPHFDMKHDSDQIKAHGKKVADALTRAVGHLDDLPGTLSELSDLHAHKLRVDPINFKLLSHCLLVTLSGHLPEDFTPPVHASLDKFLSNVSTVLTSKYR
T3 sequence (A0A481WR13 entry or part of it N83K): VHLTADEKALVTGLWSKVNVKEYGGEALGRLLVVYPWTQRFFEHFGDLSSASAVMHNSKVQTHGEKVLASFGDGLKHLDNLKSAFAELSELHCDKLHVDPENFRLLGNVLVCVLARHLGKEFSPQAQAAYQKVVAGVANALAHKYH

T2 sequence (A0A481WR13 entry or part of it): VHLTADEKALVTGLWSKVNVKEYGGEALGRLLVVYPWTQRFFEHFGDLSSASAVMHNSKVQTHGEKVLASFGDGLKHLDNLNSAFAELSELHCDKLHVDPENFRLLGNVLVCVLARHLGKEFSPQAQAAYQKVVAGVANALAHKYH
T2 sequence (A0A481WNT7 entry or part of it, further chain): as the sequence (A0A481WNT7 entry or part of it, stated change not applied) above
T1 sequence (A0A481WNF4 entry or part of it): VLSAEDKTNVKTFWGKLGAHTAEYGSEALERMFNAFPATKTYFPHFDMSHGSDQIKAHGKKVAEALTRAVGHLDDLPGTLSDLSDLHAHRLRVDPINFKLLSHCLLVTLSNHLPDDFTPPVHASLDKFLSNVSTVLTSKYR
T1 sequence (A0A481WQB0 entry or part of it): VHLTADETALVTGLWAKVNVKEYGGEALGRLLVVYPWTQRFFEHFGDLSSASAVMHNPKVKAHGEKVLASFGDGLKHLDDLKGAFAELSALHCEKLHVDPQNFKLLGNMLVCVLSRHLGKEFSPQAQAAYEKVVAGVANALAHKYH

- ΔlogP50(DPG-stripped) (dugong Hb (HbA; α2β/δ2)): 0.30 log units (P50 in mm Hg)
- ΔlogP50(DPG-stripped) [1]: 0.02 log units (P50 in mm Hg)
Structure (SMILES): O=C(O)[C@@H](COP(=O)(O)O)OP(=O)(O)O [2,3-diphosphoglycerate]
- ΔlogP50(DPG-stripped) [2]: reversion to the ancestral state restores the DPG effect to the same level
